Measured values reported in US20230114405A1, “Microemulsion Delivery Systems for A Female Hormone Blend with Alcohol-Soluble Species Including Nonderivatized Hormones” (Quicksilver Scientific, Inc., priority 2019, published 2023).

Assays:
[1] = Solubility of DHEA in ethanol and MCT oil; format: physicochemical
Excerpt: An alcohol-soluble species is a species that is insoluble in water and has a greater solubility in ethanol than in medium chain triglyceride (MCT) oils. […] Alcohol-soluble species are preferably pharmacologically active, more preferably are a drug or a supplement, and neither include nor are water. Thus, liquids and solids may exist that technically are soluble in alcohol, but because they also are soluble in water or more or equivalently soluble in MCT oils than in ethanol are not “alcohol-soluble species”.
Solubilized means that the alcohol-soluble species to be delivered is in the solution of the droplet. […] Thus, if either average particle diameters greater than 200 nm or precipitated crystals visible to the naked eye form, the alcohol-soluble species is not solubilized in the solution of the droplet. If an alcohol-soluble species is not solubilized in the solution, it is insoluble in the solution. In many respects, solubility may be thought of as a concentration dependent continuum. For example, the following descriptive terms may be used to express solubility of a solute in a solvent (grams solid/mL of solvent) at 25 degrees Celsius: […]

[2] = Formation of visually clear, shelf-stable MOIW microemulsions with phospholipid and polyethylene glycol derivative; format: physicochemical; details: used in conjunction with the phospholipid
Excerpt: A shelf-stable microemulsion may be determined in one of two ways. […] Either type of dissociation means that the microemulsion is not shelf-stable.
A visually clear microemulsion has an average particle diameter of 200 nm and less and lacks precipitated solid crystals visible to the naked eye.

Compound | descriptive solubility level in MCT oil ([1]; MCT oil) | solubility in MCT oil ([1]; MCT oil) | descriptive solubility level in ethanol ([1]; ethanol) | solubility in ethanol ([1]; ethanol) | phospholipid to polyethylene glycol derivative ratios resulting in visually clear, shelf-stable microemulsions [2]
C[C@]12CC[C@H](O)CC1=CC[C@@H]1[C@@H]2CC[C@]2(C)C(=O)CC[C@@H]12 [DHEA, dehydroepiandrosterone (3-beta-hydroxyandrosteron-5-en-17-one)] | sparingly soluble | approximately 10 mg/mL | freely soluble | approximately 150 mg/mL | –
polysorbate 20 | – | – | – | – | did not form visually clear, shelf-stable microemulsions
